Read-outs that look alike come from different tables or passages of the source.
Legend:
[1] = test system: MAVER-1; assay: Inhibition of proliferation of MAVER-1 cells; type: cell-based; conditions: Homo sapiens, Maver1; Lymphoma cell line MAVER-1; read-out: IC50 against MAVER-1
Description: (§1) 1) CWR22RV1 cells were subcultured in cell culture medium, and the cells in good growth condition were seeded in a 96-well plate, 80 μL for each well, and the cell number in each well was 1500. The plate was incubated overnight in a 37° C., 5% CO2 cell incubator. 2) The drug was prepared as 30 mM stock solution with dimethyl sulfoxide (DMSO). Prior to use, the stock solution was diluted 3 times with DMSO, and then further diluted as 3-fold gradient to obtain 9 concentration gradients. Then, each concentration of compound was diluted 200 times with the culture solution (ensuring that the DMSO concentration in the culture system was 0.1%), and two replicate wells were set for each concentration. 20 μL of diluted compound solution was added to the cell culture well (with final concentrations of 10 μM, 3.3 μM. 1.1 μM . . . ), and the plate was gently shaken to mix. In addition, 3 negative control wells containing only cells and 3 blank control wells containing only culture medium were included (6 wells were each added 20 μL DMSO diluted 200 times with culture medium). 2. Result detection: (1) After culturing for 6 days, 10 μL CCK-8 was added to each well, and the plate was continually cultured in a 37° C., 5% CO2 cell incubator for 2.5 h. (2) The absorbance (OD value) was detected at 450 nm using a multifunctional microplate reader. (3) The data were analyzed by Dose-response-inhibition equation in the software GraphPad Prism6, and the IC50 value was obtained.
(§2) Using the same method as Experimental example 2, CWR22RV1 cells were replaced with tumor cells in Table 3, and the IC50 (nM) of the compound according to the present invention against the activity of these tumor cells was tested and calculated.

[2] = test system: Pfeiffer; assay: Inhibition of proliferation of Pfeiffer cells; type: cell-based; conditions: Homo sapiens; Lymphoma cell line Pfeiffer; read-out: IC50 against Pfeiffer
Description: as §1, §2

[3] = test system: BT-474; assay: Inhibition of proliferation of BT-474 cells; type: cell-based; conditions: Homo sapiens; Breast cancer cell line BT-474; read-out: IC50 against BT-474
Description: as §1, §2

[4] = test system: DU4475; assay: Inhibition of proliferation of DU4475 cells; type: cell-based; conditions: Homo sapiens, DU-4475; Breast cancer cell line DU4475; read-out: IC50 against DU4475
Description: as §1, §2

[5] = test system: EVSA-T; assay: Inhibition of proliferation of EVSA-T cells; type: cell-based; conditions: Homo sapiens; Breast cancer cell line EVSA-T; read-out: IC50 against EVSA-T
Description: as §1, §2

[6] = test system: MM.1R; assay: Inhibition of proliferation of MM.1R cells; type: cell-based; conditions: Lymphoma cell line MM.1R; read-out: IC50 against MM.1R
Description: as §1, §2

[7] = test system: HEL; assay: Inhibition of proliferation of HEL cells; type: cell-based; conditions: Homo sapiens; Leukemia cell line HEL; read-out: IC50 against HEL
Description: as §1, §2

[8] = test system: MOLM-16; assay: Inhibition of proliferation of MOLM-16 cells; type: cell-based; conditions: MOLM16; Leukemia cell line MOLM-16; read-out: IC50 against MOLM-16
Description: as §1, §2

[9] = test system: OCI-AML3; assay: Inhibition of proliferation of OCI-AML3 cells; type: cell-based; conditions: Homo sapiens, OCI-AML-3; Leukemia cell line OCI-AML3; read-out: IC50 against OCI-AML3
Description: as §1, §2

[10] = test system: KMS-20; assay: Inhibition of proliferation of KMS-20 cells; type: cell-based; conditions: Multiple myeloma cell line KMS-20; read-out: IC50 against KMS-20
Description: as §1, §2

[11] = test system: LNCAP-AR; assay: Inhibition of proliferation of LNCAP-AR cells; type: cell-based; conditions: Prostate cancer cell line LNCAP-AR; read-out: IC50 against LNCAP-AR
Description: as §1, §2

[12] = test system: MCF-7; assay: Inhibition of proliferation of MCF-7 cells; type: cell-based; conditions: Homo sapiens, MCF7; Breast cancer cell line MCF-7; read-out: IC50 against MCF-7
Description: as §1, §2

[13] = test system: TALL-1; assay: Inhibition of proliferation of TALL-1 cells; type: cell-based; conditions: Homo sapiens; Leukemia cell line TALL-1; read-out: IC50 against TALL-1
Description: as §1, §2

[14] = test system: MLMA; assay: Inhibition of proliferation of MLMA cells; type: cell-based; conditions: Lymphoma cell line MLMA; read-out: IC50 against MLMA
Description: as §1, §2

[15] = test system: MT-2; assay: Inhibition of proliferation of MT-2 cells; type: cell-based; conditions: Homo sapiens, MT2; Leukemia cell line MT-2; read-out: IC50 against MT-2
Description: as §1, §2

[16] = test system: MDA-MB-453; assay: Inhibition of proliferation of MDA-MB-453 cells; type: cell-based; conditions: Homo sapiens; Breast cancer cell line MDA-MB-453; read-out: IC50 against MDA-MB-453
Description: as §1, §2

[17] = test system: NCI-H929; assay: Inhibition of proliferation of NCI-H929 cells; type: cell-based; conditions: Homo sapiens; Multiple myeloma cell line NCI-H929; read-out: IC50 against NCI-H929
Description: as §1, §2

[18] = test system: KARPAS-422; assay: Inhibition of proliferation of KARPAS-422 cells; type: cell-based; conditions: Homo sapiens; Lymphoma cell line KARPAS-422; read-out: IC50 against KARPAS-422
Description: as §1, §2

[19] = test system: RL; assay: Inhibition of proliferation of RL cells; type: cell-based; conditions: Homo sapiens; Lymphoma cell line RL; read-out: IC50 against RL
Description: as §1, §2

[20] = test system: HCC1428; assay: Inhibition of proliferation of HCC1428 cells; type: cell-based; conditions: Homo sapiens; Breast cancer cell line HCC1428; read-out: IC50 against HCC1428
Description: as §1, §2

[21] = test system: VCAP; assay: Inhibition of proliferation of VCAP cells; type: cell-based; conditions: Homo sapiens; Prostate cancer cell line VCAP; read-out: IC50 against VCAP
Description: as §1, §2

[22] = test system: KMS-11; assay: Inhibition of proliferation of KMS-11 cells; type: cell-based; conditions: Homo sapiens; Multiple myeloma cell line KMS-11; read-out: IC50 against KMS-11
Description: as §1, §2

[23] = test system: MM.1S; assay: Inhibition of proliferation of MM.1S cells; type: cell-based; conditions: Homo sapiens, MM1.S; Multiple myeloma cell line MM.1S; read-out: IC50 against MM.1S
Description: as §1, §2

[24] = test system: LNCAP; assay: Inhibition of proliferation of LNCAP cells; type: cell-based; conditions: Homo sapiens; Prostate cancer cell line LNCAP; read-out: IC50 against LNCAP
Description: as §1, §2

[25] = test system: Z-138; assay: Inhibition of proliferation of Z-138 cells; type: cell-based; conditions: Homo sapiens; Lymphoma cell line Z-138; read-out: IC50 against Z-138
Description: as §1, §2

[26] = test system: OPM-2; assay: Inhibition of proliferation of OPM-2 cells; type: cell-based; conditions: Homo sapiens; Multiple myeloma cell line OPM-2; read-out: IC50 against OPM-2
Description: as §1, §2

[27] = test system: KMS-12-PE; assay: Inhibition of proliferation of KMS-12-PE cells; type: cell-based; conditions: Homo sapiens; Lymphoma cell line KMS-12-PE; read-out: IC50 against KMS-12-PE
Description: as §1, §2

[28] = test system: CWR22RV1 cells; assay: Inhibition of proliferation of CWR22RV1 cells (CCK-8); type: cell-based, human; conditions: Homo sapiens, CWR22Rv1, 144 h, 6 days culture
How it was run: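 Proliferation read-out was CCK-8 absorbance at 450 nm after 2.5 h, following 6-day culture with compound. Each well held 1500 CWR22RV1 cells; the 3-fold, 9-point series started at a final 10 μM in 0.1% DMSO. Dose-response-inhibition fit gave the IC50.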

[29] = test system: MOLT-4; assay: Inhibition of proliferation of MOLT-4 cells; type: cell-based; conditions: Homo sapiens; Leukemia cell line MOLT-4; read-out: IC50 against MOLT-4
Description: as §1, §2

[30] = test system: ATN-1; assay: Inhibition of proliferation of ATN-1 cells; type: cell-based; conditions: Homo sapiens; Leukemia cell line ATN-1; read-out: IC50 against ATN-1
Description: as §1, §2

With `CNC(=O)Nc1cc2c(cc1F)[C@@]1(CC2)OC(=O)N(CC(=O)N2[C@@H](C)CC[C@H]2c2cc(F)c(F)c(F)c2)C1=O` [Example 390, 1-((R)-6-fluoro-3′-(2-((2S,5S)-2-methyl-5-(3,4,5-trifluorophenyl)pyrrolidin-1-yl)-2-oxoethyl)-2′,4′-dioxo-2,3-dihydrospiro[indene-1,5′-oxazolidine]-5-yl)-3-methylurea] the IC50 [1] was no more than 500 nM, the IC50 [2] was no more than 500 nM and the IC50 [3] was no more than 500 nM. It also gave an IC50 [4] of 500 to 2000 nM, an IC50 [5] of 500 to 2000 nM and an IC50 [6] of 500 to 2000 nM. For the same molecule, the IC50 [7] was no more than 500 nM, the IC50 [8] was no more than 500 nM and the IC50 [9] was no more than 500 nM. It also gave an IC50 [10] of no more than 500 nM, an IC50 [11] of no more than 500 nM and an IC50 [12] of no more than 500 nM. It also gave an IC50 [13] of no more than 500 nM, an IC50 [14] of no more than 500 nM and an IC50 [15] of 500 to 2000 nM. The IC50 [16] was no more than 500 nM, the IC50 [17] was no more than 500 nM and the IC50 [18] was no more than 500 nM. It also gave an IC50 [19] of no more than 500 nM, an IC50 [20] of no more than 500 nM and an IC50 [21] of no more than 500 nM. For the same molecule, the IC50 [22] was no more than 500 nM, the IC50 [23] was 500 to 2000 nM and the IC50 [24] was no more than 500 nM. For the same molecule, the IC50 [25] was no more than 500 nM, the IC50 [26] was no more than 500 nM and the IC50 [27] was 500 to 2000 nM. For the same molecule, the IC50 ([28]; read-out: IC50 against CWR22RV1 cells) was no more than 500 nM, the IC50 ([28]; read-out: IC50 against CWR22RV1 cells (text)) was no more than 500 nM and the IC50 [29] was no more than 500 nM. The IC50 [30] was no more than 500 nM.

— patent US20220087996A1, “Histone acetylase p300 inhibitor and use thereof” (HINOVA PHARMACEUTICALS INC., priority 2018, published 2022)
